Where “and” joins values, the source holds several entries; their conditions need not be identical. Identical values can stand only once.
What was measured:
[1] = system: mouse Mfsd2a; assay: Cell-based free fatty acid transport/uptake in Mfsd2a expressing HEK293 cells (mass spectrometry, TLC; Table 1); conditions: MS, replicate columns; for Amount of each lipid species normalized to internal standard, mol percent in total phospholipid analysed / Amount of lipid species, mol percent in total phospholipid analysed: mock HEK293 cells
Experimental: (§1) FIG. 12. […] Std: free [^14C]-DHA. b. TLC analysis of phospholipids and neutral lipids of HEK293 cells transfected with mouse Mfsd2a and mutants after overnight incubation with 100 μM [^14C]-oleate. TLC protocol used was described in Methods. PC: phosphatidylcholine, PE: phosphatidylethanolamine, TAG: triglyceride, CE: cholesteryl ester.
(§2) For tissue lipid analysis, brain, liver, and heart of female WT and KO mice with age of 7-8 weeks born to HET mothers, and brains from e18.5 embryos were collected and immediately frozen with liquid nitrogen until extraction. Lipid extraction was followed by chloroform/methanol method. For cell-based free fatty acid transport, lipids from HEK293 cells expressing mouse Mfsd2a and mock controls after overnight treatment with 100 μM docosahexaenoic, arachidonic, eicosapentaenoic, alpha-linolenic, linoleic, oleic, palmitic acids in BSA complex were extracted using HIP buffer (hexane:iso-propanol 3:2, per volume) and dried under N2 gas. Phospholipid species were measured by high performance liquid chromatography (HPLC) 1100 system (Agilent) coupled with an Triple Quadrupole/Ion Trap mass spectrometer (4000Qtrap, Applied Biosystem). Levels of individual phospholipid species were analyzed as described previously and quantified using spiked internal standards that includes PC-14:0/14:0, PE-14:0/14:0, PS-14:0/14:0 (Avanti Polar Lipids, Alabaster, Ala., USA), and dioctanoyl PI (Echelon Biosciences, Inc., Salt Lake City, Utah, USA).

[2] = target: T1, mouse Mfsd2a (Mus musculus, UniProt Q9DA75); assay: as above; conditions: replicate columns; for Amount of each lipid species normalized to internal standard, mol percent in total phospholipid analysed / Amount of lipid species, mol percent in total phospholipid analysed: Mfsd2a expressing HEK293 cells
T1 construct: expressed in transfected cells; host or cells: HEK293
T1 sequence (Q9DA75 1-534): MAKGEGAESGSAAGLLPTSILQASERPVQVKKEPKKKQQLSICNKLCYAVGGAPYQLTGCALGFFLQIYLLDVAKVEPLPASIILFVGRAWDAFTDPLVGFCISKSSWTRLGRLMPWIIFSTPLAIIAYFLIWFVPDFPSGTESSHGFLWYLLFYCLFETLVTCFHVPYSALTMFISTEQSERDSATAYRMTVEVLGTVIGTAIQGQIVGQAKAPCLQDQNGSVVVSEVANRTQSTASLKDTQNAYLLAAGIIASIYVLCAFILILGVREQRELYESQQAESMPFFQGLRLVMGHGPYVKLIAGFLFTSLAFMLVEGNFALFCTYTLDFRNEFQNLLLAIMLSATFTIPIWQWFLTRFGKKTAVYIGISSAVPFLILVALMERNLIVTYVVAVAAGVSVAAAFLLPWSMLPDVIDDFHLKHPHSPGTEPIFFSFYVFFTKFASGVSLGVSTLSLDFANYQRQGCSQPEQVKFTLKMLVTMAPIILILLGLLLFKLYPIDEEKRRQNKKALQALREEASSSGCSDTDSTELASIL
Experimental: as §1, §2

[3] = 100 uM Docosahexaenoic acid/BSA complex overnight
[4] = 100 uM Docosahexaenoic acid/BSA complex overnight, MS
[5] = mock HEK293 cells incubated with 100 uM Eicosapentaenoic fatty acid/BSA complex overnight
[6] = 100 uM Linoleic fatty acid/BSA complex overnight
[7] = 100 uM Oleic fatty acid/BSA complex overnight
[8] = Mfsd2a expressing HEK293 cells incubated with 100 uM Eicosapentaenoic fatty acid/BSA complex overnight, MS
[9] = 100 uM Alpha-linolenic fatty acid/BSA complex overnight
[10] = 100 uM Linoleic fatty acid/BSA complex overnight, MS
[11] = 100 uM Oleic fatty acid/BSA complex overnight, MS
[12] = mock HEK293 cells incubated with 100 uM Arachidonic fatty acid/BSA complex overnight
[13] = Mfsd2a expressing HEK293 cells incubated with 100 uM Arachidonic fatty acid/BSA complex overnight, MS
[14] = 100 uM Eicosapentaenoic acid/BSA complex overnight
[15] = 100 uM Eicosapentaenoic acid/BSA complex overnight, MS

SMILES	Amount of each lipid species normalized to internal standard, mol percent in total phospholipid analysed [1, 3]	Amount of each lipid species normalized to internal standard, mol percent in total phospholipid analysed [2, 4]	Amount of each lipid species, mol percent in total phospholipid analysed [1, 5]	Amount of lipid species, mol percent in total phospholipid analysed [1, 6]	Amount of lipid species, mol percent in total phospholipid analysed [1, 7]	Amount of each lipid species, mol percent in total phospholipid analysed [2, 8]	Amount of lipid species, mol percent in total phospholipid analysed [2, 9]	Amount of lipid species, mol percent in total phospholipid analysed [2, 10]	Amount of lipid species, mol percent in total phospholipid analysed [2, 11]	Amount of each lipid species, mol percent in total phospholipid analysed [1, 12]	Amount of each lipid species, mol percent in total phospholipid analysed [2, 13]	Amount of each lipid species normalized to internal standard, mol percent in total phospholipid analysed [1, 14]	Amount of lipid species, mol percent in total phospholipid analysed [2, 6]	Amount of each lipid species normalized to internal standard, mol percent in total phospholipid analysed [2, 15]
CCCCCCCCCCCCCCCC(=O)OC[C@@H](O)COP(=O)(O)O[C@@H]1[C@H](O)[C@H](O)[C@@H](O)[C@H](O)[C@H]1O [LP116:0]	0.003621 mol percent and 0.004425 mol percent and 0.003813 mol percent	0.003896 mol percent and 0.00362 mol percent and 0.004663 mol percent and 0.002596 mol percent	–	–	–	–	–	–	–	–	–	–	–	–
CCCCCCCCCCCCCCCC(=O)OC[C@@H](O)COP(=O)(O)OC1[C@H](O)[C@H](O)C(O)[C@H](O)[C@H]1O (stereo partly shown) [LPI16:0]	–	–	0.004685 mol percent and 0.004731 mol percent and 0.003589 mol percent	0.003029 mol percent and 0.004291 mol percent and 0.00407 mol percent	0.003369 mol percent and 0.003584 mol percent and 0.002627 mol percent	0.00427 mol percent and 0.002996 mol percent and 0.00331 mol percent and 0.004891 mol percent	0.002614 mol percent and 0.002235 mol percent and 0.003861 mol percent and 0.003103 mol percent	0.002421 mol percent and 0.002583 mol percent and 0.004097 mol percent and 0.003665 mol percent	0.003305 mol percent and 0.002531 mol percent and 0.002415 mol percent and 0.003238 mol percent	–	–	–	–	–
CCCCCCCCCCCCCCCCCC(=O)OC[C@@H](O)COP(=O)(O)O[C@@H]1[C@H](O)[C@H](O)[C@@H](O)[C@H](O)[C@H]1O [LPI18:0]	0.0354 mol percent and 0.03721 mol percent and 0.03756 mol percent	0.03395 mol percent and 0.02821 mol percent and 0.03136 mol percent and 0.02514 mol percent	0.03631 mol percent and 0.04031 mol percent and 0.03846 mol percent	0.03365 mol percent and 0.03811 mol percent and 0.02692 mol percent	0.02649 mol percent and 0.03117 mol percent and 0.0307 mol percent	0.02916 mol percent and 0.03081 mol percent and 0.03115 mol percent and 0.03571 mol percent	0.03202 mol percent and 0.03143 mol percent and 0.03738 mol percent and 0.03614 mol percent	0.03216 mol percent and 0.02682 mol percent and 0.02809 mol percent and 0.04343 mol percent	0.02837 mol percent and 0.02931 mol percent and 0.02721 mol percent and 0.02894 mol percent	0.03307 mol percent and 0.03421 mol percent and 0.02228 mol percent	0.02508 mol percent and 0.03053 mol percent and 0.02667 mol percent and 0.03031 mol percent	–	–	–
CCCCCCCCCCCCCCCC(=O)OC[C@@H](O)COP(=O)(O)OC1[C@H](O)[C@H](O)C(O)[C@H](O)[C@H]1O (stereo partly shown) [LPI 16:0]	–	–	–	–	–	–	–	–	–	0.003611 mol percent and 0.003895 mol percent and 0.00338 mol percent	0.003583 mol percent and 0.003359 mol percent and 0.003156 mol percent and 0.002319 mol percent	–	–	–
CCCCCCCCCCCCCC/C=C\OC[C@@H](O)COP(=O)(O)OCCN [Lyso PE16:0p]	2.843 mol percent and 2.772 mol percent and 2.42 mol percent	3.182 mol percent and 3.1158 mol percent and 3.231 mol percent and 3.697 mol percent	–	–	3.062 mol percent and 2.456 mol percent and 2.052 mol percent	–	3.296 mol percent and 3.844 mol percent and 2.809 mol percent and 2.876 mol percent	–	2.254 mol percent and 2.591 mol percent and 2.664 mol percent and 2.476 mol percent	–	–	3.984 mol percent and 3.09 mol percent and 2.343 mol percent	1.997 mol percent and 3.121 mol percent and 2.462 mol percent and 2.098 mol percent	2.495 mol percent and 3.134 mol percent and 3.766 mol percent and 2.379 mol percent
CCCCCCCCCCCCCCCC/C=C\OC[C@@H](O)COP(=O)(O)OCCN [Lyso PE18:0p]	0.3791 mol percent and 0.5478 mol percent and 0.5875 mol percent	0.3998 mol percent and 0.8078 mol percent and 0.4971 mol percent and 0.5526 mol percent	–	–	0.336 mol percent and 0.5628 mol percent and 0.5097 mol percent	–	0.5329 mol percent and 0.4653 mol percent and 0.37 mol percent and 0.5715 mol percent	–	0.4754 mol percent and 0.4091 mol percent and 0.4604 mol percent and 0.341 mol percent	–	–	0.7711 mol percent and 0.3952 mol percent and 0.4625 mol percent	0.3438 mol percent and 0.3054 mol percent and 0.2525 mol percent and 0.1986 mol percent	0.4834 mol percent and 0.7431 mol percent and 0.4828 mol percent and 0.4728 mol percent
CCCCCCCCCCCCCCCCCC/C=C\OC[C@@H](O)COP(=O)(O)OCCN [Lyso PE20:0p]	0.1737 mol percent and 0.2656 mol percent and 0.1958 mol percent	0.1999 mol percent and 0.2885 mol percent and 0.2131 mol percent and 0.1906 mol percent	–	–	0.1867 mol percent and 0.2217 mol percent and 0.228 mol percent	–	0.4144 mol percent and 0.2832 mol percent and 0.3195 mol percent and 0.1905 mol percent	–	0.184 mol percent and 0.3068 mol percent and 0.1973 mol percent and 0.2871 mol percent	–	–	0.4498 mol percent and 0.1976 mol percent and 0.1696 mol percent	0.1851 mol percent and 0.2714 mol percent and 0.2999 mol percent and 0.1862 mol percent	0.1715 mol percent and 0.2585 mol percent and 0.309 mol percent and 0.2898 mol percent
